PubChem BioAssay (NCI)
Where “and” joins values, the source holds several entries; their conditions need not be identical. Identical values can stand only once.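 Values below derive from 48-hour exposures of cells grown in 96-well plates, with endpoints linearly interpolated between the two concentrations bracketing the appropriate inhibition level. GI50 is the concentration that inhibits growth by half. TGI: total growth inhibition.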

Experiments:
Test in all cases: growth of human tumour cells (NCI), 48 h
[1] = test system: BT-549 breast
[2] = test system: A498 renal
[3] = test system: SNB-75 CNS
[4] = test system: TK-10 renal
[5] = test system: MALME-3M melanoma
[6] = test system: SR leukemia
[7] = test system: KM12 colon
[8] = test system: U251 CNS
[9] = test system: T-47D breast
[10] = test system: HCT-15 colon

SMILES | GI50 [1] | TGI [1] | GI50 [2] | TGI [2] | GI50 [3] | TGI [3] | GI50 [4] | TGI [4] | GI50 [5] | TGI [5] | GI50 [6] | TGI [6] | GI50 [7] | TGI [7] | GI50 [8] | TGI [8] | GI50 [9] | TGI [9] | GI50 [10] | TGI [10]
O=C(NCCCO)c1cc(Cl)ccc1O | 3.27 µM | 12.7 µM | 4.43 µM | 12.7 µM | 2.44 µM | 15.1 µM | 4.26 µM | 15.1 µM | 1.85 µM | 8.33 µM | 3.24 µM | 18.2 µM | 2.43 µM | 12.9 µM | 1.11 µM | 12.1 µM | 1.67 µM | 18 µM | 7.02 µM | 21.6 µM
Oc1ccc(-c2nc3ccccc3s2)cc1CN(Cc1ccccn1)Cc1ccccn1 | 1.83 µM | 15.6 µM | 2.66 µM | 18.6 µM | 1.22 µM | 15.3 µM | 0.486 µM | 34.6 µM | 1.8 µM | 7.77 µM | 2.14 µM | > 100 µM | 0.909 µM | 15.6 µM | 0.76 µM | 17.6 µM | 3.79 µM | 89.9 µM | 0.149 µM | 14.3 µM
Cc1nnc(-c2cccc(-c3ccc(C(=O)NCC4CC4)cc3)c2)o1 | > 25 µM | > 25 µM | > 7.79 µM | > 25 µM | > 25 µM | > 25 µM | > 25 µM | > 25 µM | > 25 µM | > 25 µM | > 25 µM | > 25 µM | 15.5 µM | > 25 µM | > 25 µM | > 25 µM | > 16.9 µM | > 25 µM | > 25 µM | > 25 µM
CC(C)=CCC/C(C)=C/CC/C(C)=C/CSc1ccccc1C(=O)O | 19.4 µM | 40.4 µM and 32.2 µM | 21.3 µM | 54.6 µM and 56.7 µM | > 66.4 µM | > 100 µM and 42.1 µM | 36.4 µM | > 92.3 µM and 99.1 µM | 25.6 µM | 66.2 µM | 22.5 µM | 59.1 µM |  | 35.8 µM and 33.5 µM | 23.4 µM | 59.9 µM and 44.5 µM | 33.6 µM | > 91.3 µM | 28.6 µM | > 100 µM and 32 µM
COc1cc(-c2cc(O)c(-c3ccc4ccccc4n3)c(=O)[nH]2)cc(OC)c1OC |  | > 100 µM |  | > 100 µM |  | 46.1 µM |  | > 100 µM |  | > 54.8 µM |  | 20.9 µM |  | > 100 µM |  | > 48.2 µM |  | > 100 µM |  | > 100 µM
C[As](C)SCC(COC(=O)C(Cl)c1ccccc1)OC(=O)C(Cl)c1ccccc1 (centres undefined) | 2.68 µM | 14.3 µM | 4.34 µM | 17.2 µM | 10.6 µM | 42.6 µM | 0.222 µM | 1.58 µM | 0.139 µM | 1.44 µM | 1.41 µM | 5.84 µM | 2.24 µM | 13.5 µM | 3.42 µM | 31.6 µM | 17.1 µM | > 45.8 µM | 0.229 µM | 4.02 µM
Oc1ccc(C(c2ccc(O)cc2)c2ccc(O)cc2)cc1 |  | 54.2 µM |  | 34.5 µM |  |  |  | 63.4 µM |  | 44 µM |  | 75.3 µM |  | 32.4 µM |  | 83.7 µM |  | 41 µM |  | 55.3 µM
Nc1c(C(=O)Nc2cccc(F)c2)sc2nc3c(cc12)C(=O)CCC3 | 3.71 µM | > 100 µM | 0.0274 µM | > 100 µM | 0.339 µM | > 56.5 µM | > 100 µM | > 100 µM | 0.377 µM | > 100 µM | 0.481 µM | > 70.6 µM | 0.384 µM | > 100 µM | 0.488 µM | > 69 µM |  | > 100 µM | 0.298 µM | > 100 µM
Cn1cnc([N+](=O)[O-])c1Sc1nc(N)nc2c1ncn2C1CC(O)C(CO)O1 (centres undefined) |  | > 100 µM |  | 71.2 µM |  | 37.7 µM |  | > 100 µM |  | > 100 µM |  | 18.7 µM |  | 12.1 µM |  | > 100 µM |  | > 63.9 µM |  | > 100 µM
Cc1csc(/C=C/C(=O)c2nnn(-c3ccnc4c(C(F)(F)F)cccc34)c2C)c1 | > 100 µM | > 100 µM | > 100 µM | > 100 µM | 27.3 µM | 99.4 µM | 87.1 µM | > 100 µM | > 100 µM | > 100 µM | 23 µM | > 100 µM | 52.7 µM | > 100 µM | 39.2 µM | > 100 µM | 21.1 µM | > 100 µM | 57.5 µM | > 100 µM
CCC(=C/[C@H](C)C/C=C/C(C)=C/[C@@H](C)C(=O)[C@@H](C)[C@H](O)[C@@H](C)CC)/C=C/[C@@H]1OC(=O)C=C[C@H]1C | < 0.01 µM | 1.75 µM | < 0.01 µM | < 0.01 µM | < 0.01 µM | < 0.0465 µM | < 0.01 µM | 1.52 µM | < 0.01 µM | 0.0157 µM | < 0.01 µM | 0.115 µM | < 0.01 µM | 0.126 µM | < 0.01 µM |  | < 0.01 µM | 2.13 µM | < 0.01 µM | 0.396 µM
O=Nc1ccc(NO)c2ccccc12 | 15.7 µM | 29.4 µM | 18.9 µM | 36 µM | 18.3 µM | 32.4 µM | 27.6 µM | 42.5 µM | 5.85 µM | 19 µM | 16.3 µM | 62 µM | 15.6 µM | 30.4 µM | 13.1 µM | 26.1 µM | 3.67 µM | 21.4 µM | 14.9 µM | 31.7 µM
Cc1nc(-c2cn3c(n2)-c2ccc(-c4cnn(C(C)(C)C(N)=O)c4)cc2OCC3)n(C(C)C)n1 | 0.633 µM and 0.594 µM | 17.4 µM and > 10 µM | 0.143 µM and 0.274 µM | 1.15 µM and 1.67 µM | 0.0204 µM and 0.0142 µM | 2.63 µM and > 2.63 µM | 0.0722 µM and 0.0489 µM | 32.1 µM and > 10 µM |  | 3.12 µM and > 10 µM | 4.97 µM and 8.69 µM | 26.1 µM and > 10 µM | 3.48 µM and 3 µM | 17.2 µM and > 10 µM | 0.68 µM and 1.51 µM | 25.4 µM and > 10 µM | < 0.0384 µM and 0.00372 µM |  | 0.219 µM and 0.314 µM | 39.9 µM and > 10 µM
O=C1C=CC(=Nc2cc(Br)c(O)c(Br)c2)C=C1 | 16.4 µM | 74.8 µM | 26.5 µM | > 100 µM | 27.5 µM | > 100 µM | 32.9 µM | > 100 µM | 18.4 µM | > 100 µM | 2.13 µM | > 100 µM | 16.9 µM | 42.5 µM | 17.8 µM | 99.1 µM | 12.4 µM | 41.4 µM | 16.5 µM | 43.8 µM
